Patent US20030170218A1, “Fungicide and method for producing the same” (Biobank Co., Ltd., priority 2002, published 2003)

What was measured:
Trichophyton rubrum = experiment: Agar dilution method, colony growth on sample plate; type: cell-based; details: T. rubrum, 28° C., 12 days; for Diameter of the colony: 2 mL sample + 18 mL Sabourand agar medium, 5 mm colony disk; for Antifungal activity: 100-[(x-5)/(y-5)x100] vs standard plate, 2 mL sample + 18 mL medium
[1] = tested on: Trichophyton mentagrophytes; experiment: as above; type: cell-based; details: T. mentagrophytes, 28° C., 12 days; for Diameter of the colony: 2 mL sample + 18 mL Sabourand agar medium, 5 mm colony disk; for Antifungal activity: 100-[(x-5)/(y-5)x100] vs standard plate, 2 mL sample + 18 mL medium
pH measurement = type: physicochemical; details: sample plate: 2 mL sample + 18 mL Sabourand agar medium
[2] = tested on: enterohemorrhagic E. coli O-157; details: Japanese Patent Laid-Open No. 300284/2000; cited from earlier work
Rosellinia necatrix = experiment: Agar dilution method on potato dextrose agar; type: cell-based; details: 2 mL sample + 18 mL potato dextrose agar
Helicobasidium mompa = experiment: Agar dilution method on potato dextrose agar; type: cell-based; details: 2 mL sample + 18 mL potato dextrose agar
Fusarium oxysporum = experiment: Agar dilution method on potato dextrose agar; type: cell-based; details: 2 mL sample + 18 mL potato dextrose agar
Pythium graminicola = experiment: Agar dilution method on potato dextrose agar; type: cell-based; details: 2 mL sample + 18 mL potato dextrose agar

Row | PH of the Medium (pH measurement) | SMILES | Diameter of the colony (Trichophyton rubrum) | Antifungal activity (Trichophyton rubrum) | Diameter of the colony [1] | Antifungal activity [1] | other results
1 | 3.46 | CC(O)C(=O)O (stereo not shown) [Comp. Ex. 7, lactic acid] | 18.0 ± 5.0 mm | 66% | 17.7 ± 1.4 mm | 74% | 
2 | 2.91 | O=C(O)CC(=O)O [Comp. Ex. 6, malonic acid] | 5.5 ± 0.0 mm | 99% | 5.5 ± 0.0 mm | 99% | 
3 |  | O=C(O)CC(O)(CC(=O)O)C(=O)O [Comp. Ex. 3, citric acid] | 26.5 ± 1.5 mm | 44% | 14.8 ± 0.7 mm | 80% | 
4 |  | O=C(O)C(O)Cc1ccccc1 (stereo not shown) [phenyllactic acid] |  |  |  |  | antibacterial activity [2]: strong antibacterial activity
5 | 4.30 | O=C(O)C(=O)O [Comp. Ex. 5, oxalic acid] | 36.5 ± 1.1 mm | 18% | 17.6 ± 0.1 mm | 74% | 
6 |  | O=C([O-])c1ccccc1C(=O)O.[K+] [Comparative Example 12, potassium hydrogen phthalate] |  |  |  |  | Diameter of the colony (Rosellinia necatrix; […]): 70.3 ± 0.0 mm; Antifungal activity (Rosellinia necatrix; vs standard plate): 5%; Diameter of the colony (Helicobasidium mompa; […]): 8.1 ± 0.7 mm; Antifungal activity (Helicobasidium mompa; vs standard plate): 95%; Diameter of the colony (Fusarium oxysporum; […]): 54.1 ± 4.1 mm; Antifungal activity (Fusarium oxysporum; vs standard plate): 5%; Diameter of the colony (Pythium graminicola; […]): 13.1 ± 0.6 mm; Antifungal activity (Pythium graminicola; vs standard plate): 88%
7 |  | O=C([O-])c1ccccc1C(=O)O.[K+] [Comp. Ex. 2, potassium hydrogen phthalate] | 21.0 ± 1.5 mm | 58% | 51.1 ± 2.4 mm | 6% | 

Row | SMILES | PH of the Medium (pH measurement) | Diameter of the colony (Trichophyton rubrum) | Antifungal activity (Trichophyton rubrum) | Diameter of the colony [1] | Antifungal activity [1] | other results
8 | CC(=O)O [Comp. Ex. 8, acetic acid] | 4.12 | 5.4 ± 0.3 mm | 99% | 5.7 ± 0.3 mm | 99% | 
